Measured values: paper PMC4823997 (Journal of medicinal chemistry, 2015)
Where two headings read alike, the source gives them in different places. Each block holds one compound with its values, some of them ahead of it.

Columns and labels:
hCXCR4 = hCXCR4 (Homo sapiens, UniProt P61073); experiment: Radioligand [125I]SDF-1α binding to hCXCR4-transfected HEK293 membrane
TZM-bl cells = experiment: Cytotoxicity assay; assay type: cell-based
CCR5 = CCR5 (Homo sapiens, UniProt P51681); experiment: CCR5 radioligand binding assay; conditions: for selective index CCR5: selectivity for CXCR4 binding versus CCR5
CCR5, sequence (P51681 whole entry, species assumed): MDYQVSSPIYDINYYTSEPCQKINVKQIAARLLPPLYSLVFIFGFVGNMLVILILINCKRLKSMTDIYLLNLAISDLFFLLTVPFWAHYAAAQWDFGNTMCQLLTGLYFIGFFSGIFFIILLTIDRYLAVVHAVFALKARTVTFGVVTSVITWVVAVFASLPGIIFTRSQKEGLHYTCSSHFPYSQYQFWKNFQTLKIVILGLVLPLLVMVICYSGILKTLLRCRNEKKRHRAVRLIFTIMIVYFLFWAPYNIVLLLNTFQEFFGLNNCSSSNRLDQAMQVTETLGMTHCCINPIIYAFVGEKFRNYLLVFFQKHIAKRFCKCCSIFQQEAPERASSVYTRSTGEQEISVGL

CCR2 = CCR2 (Homo sapiens, UniProt P41597); experiment: CCR2 radioligand binding assay; conditions: for selective index CCR2: selectivity for CXCR4 binding versus CCR2
CCR2, sequence (P41597 whole entry, species assumed): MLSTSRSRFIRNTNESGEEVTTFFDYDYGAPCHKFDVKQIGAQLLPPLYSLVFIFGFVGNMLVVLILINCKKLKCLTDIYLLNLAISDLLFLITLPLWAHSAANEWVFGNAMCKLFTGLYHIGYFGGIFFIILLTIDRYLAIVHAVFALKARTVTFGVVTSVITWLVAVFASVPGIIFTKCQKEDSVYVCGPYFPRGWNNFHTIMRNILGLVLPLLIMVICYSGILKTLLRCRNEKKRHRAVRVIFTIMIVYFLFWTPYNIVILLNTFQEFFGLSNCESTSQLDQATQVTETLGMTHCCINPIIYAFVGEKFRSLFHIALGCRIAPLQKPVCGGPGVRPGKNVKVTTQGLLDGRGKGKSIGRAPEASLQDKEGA

CCR4 = target: T1, CCR4 (Homo sapiens, UniProt P51679); experiment: CCR4 radioligand binding assay; conditions: for selective index CCR4: selectivity for CXCR4 binding versus CCR4
T1 sequence (P51679 1-360): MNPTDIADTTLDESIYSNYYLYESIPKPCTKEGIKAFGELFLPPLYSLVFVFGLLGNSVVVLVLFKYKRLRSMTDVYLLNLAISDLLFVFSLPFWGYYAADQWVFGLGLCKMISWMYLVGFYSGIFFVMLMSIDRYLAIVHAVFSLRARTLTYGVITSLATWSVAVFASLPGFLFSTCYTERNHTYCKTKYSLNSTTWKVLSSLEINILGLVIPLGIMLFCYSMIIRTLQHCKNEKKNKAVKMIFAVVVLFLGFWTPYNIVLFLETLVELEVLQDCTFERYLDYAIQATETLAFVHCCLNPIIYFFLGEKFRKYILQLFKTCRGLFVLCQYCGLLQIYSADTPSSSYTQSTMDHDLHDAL

HIV-1 = conditions: 0 to 20 nM
[1] = test system: CCRF-CEM cells that express endogenous human CXCR4; conditions: read-out: IC50 to block SDF-1α-induced CEM migration, 10 nM SDF-1, 2.5 h
CXCR7 = CXCR7 (Homo sapiens, UniProt P25106); assay type: cell-based
CXCR7, sequence (P25106 whole entry): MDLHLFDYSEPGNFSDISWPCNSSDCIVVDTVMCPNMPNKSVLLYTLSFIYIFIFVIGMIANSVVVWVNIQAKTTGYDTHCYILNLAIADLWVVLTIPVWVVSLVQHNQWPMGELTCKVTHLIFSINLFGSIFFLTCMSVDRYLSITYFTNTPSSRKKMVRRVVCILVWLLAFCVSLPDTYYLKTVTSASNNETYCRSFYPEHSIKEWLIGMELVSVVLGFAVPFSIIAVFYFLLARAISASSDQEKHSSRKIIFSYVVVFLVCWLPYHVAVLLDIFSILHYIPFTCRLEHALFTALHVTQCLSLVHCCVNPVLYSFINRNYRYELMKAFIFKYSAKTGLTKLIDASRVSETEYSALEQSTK

CEM cells = experiment: Cytotoxicity assay; assay type: cell-based, human
HIV-1 IIIB = experiment: Luciferase activity assay of HIV-1 infectivity in TZM-bl cells; assay type: cell-based; conditions: read-out: Anti-HIV EC50; TZM-bl cells, HIV-1 IIIB, M.O.I. 1
CXCR2 = target: T2, CXCR2 (Homo sapiens, UniProt P25025); experiment: CXCR2 radioligand binding assay; conditions: for selective index CXCR2: selectivity for CXCR4 binding versus CXCR2
T2 sequence (P25025 1-360): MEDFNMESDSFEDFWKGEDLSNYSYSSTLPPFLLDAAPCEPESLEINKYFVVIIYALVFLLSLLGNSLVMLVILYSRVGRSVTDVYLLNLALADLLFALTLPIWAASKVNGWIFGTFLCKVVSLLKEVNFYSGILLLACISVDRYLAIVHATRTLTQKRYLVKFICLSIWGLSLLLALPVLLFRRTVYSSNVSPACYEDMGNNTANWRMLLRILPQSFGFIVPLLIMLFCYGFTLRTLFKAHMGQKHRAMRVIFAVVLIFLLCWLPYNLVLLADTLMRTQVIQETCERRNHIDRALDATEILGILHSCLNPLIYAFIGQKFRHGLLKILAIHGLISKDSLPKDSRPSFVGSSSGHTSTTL

Cytotoxicity assay [2] = assay type: cell-based; conditions: human, TZM-bl cells
Cytotoxicity assay [3] = assay type: cell-based, human; conditions: human, CEM cells (T-lymphoblast leukemia)

hCXCR4, sequence (P61073 whole entry): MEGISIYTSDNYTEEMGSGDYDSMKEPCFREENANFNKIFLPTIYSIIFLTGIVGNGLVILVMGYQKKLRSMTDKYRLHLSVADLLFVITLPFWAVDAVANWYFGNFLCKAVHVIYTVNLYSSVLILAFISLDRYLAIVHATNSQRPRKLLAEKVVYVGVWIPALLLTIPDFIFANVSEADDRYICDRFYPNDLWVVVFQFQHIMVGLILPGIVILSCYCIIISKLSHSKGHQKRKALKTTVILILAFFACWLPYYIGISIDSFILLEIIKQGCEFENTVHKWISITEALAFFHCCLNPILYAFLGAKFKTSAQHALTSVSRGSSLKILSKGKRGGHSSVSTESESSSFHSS

Compound: c1nc2c(NCc3ccc(CCNCCCNC4CCCCC4)cc3)nc(N3CCNCC3)nc2[nH]1 [Compound 24, N-Cyclohexyl-N′-(2-{4-[(2-piperazin-1-yl-9H-purin-6-ylami-no)-methyl]-phenyl}-ethyl)-propane-1,3-diamine]
- inhibition (%) CXCR4 (hCXCR4; at 10 μM): 100%
- fold increase in CXCR4 binding affinity compared to AMD3100 (hCXCR4; relative to AMD3100): 13 fold
- fold increase in CXCR4 binding affinity compared to compound 4 (hCXCR4; relative to compound 4): 2.2 fold
- Selective Index CC50/EC50 TZM-bl (TZM-bl cells; CC50 (TZM-bl) / anti-HIV EC50): >98039
- CC50 (TZM-bl cells; read-out: Cytotoxicity CC50 TZM-bl, TZM-bl cells, 72 h): > 50 µM
- inhibition (%) CCR5 (CCR5; at 10 μM): 15%
- IC50 (CCR5; read-out: IC50 CCR5): > 10 µM
- selective index CCR5 (CCR5): >609
- inhibition (%) CCR2 (CCR2; at 10 μM): 10%
- IC50 (CCR2; read-out: IC50 CCR2): > 10 µM
- selective index CCR2 (CCR2): >609
- inhibition (%) CCR4 (CCR4; at 10 μM): 11%
- IC50 (CCR4; read-out: IC50 CCR4): > 10 µM
- selective index CCR4 (CCR4): >609
- anti-HIV activity, time of addition (HIV-1; added 3 h after HIV-1 infection): significantly reduced
- anti-HIV activity, time of addition (HIV-1; added 3 h before or simultaneously with HIV-1 infection): maintained its potent anti-HIV activity
- IC50 [1]: 0.0031 µM
- functional selectivity over CXCR4-dependent HIV entry inhibition (CXCR7; CXCR7 β-arrestin assay versus HIV entry inhibition): > 1960 fold
- antagonism of SDF-1α binding to CXCR7 or triggering of β-arrestin recruitment (CXCR7; even at a 40-fold higher SDF-1α concentration): did not antagonize
- Selective Index CC50/EC50 CEM (CEM cells; CC50 (CEM) / anti-HIV EC50): >98039
- CC50 (CEM cells; read-out: Cytotoxicity CC50 CEM, CEM cells, 72 h): > 50 µM
- EC50 (HIV-1 IIIB): 0.00051 ± 2e-05 µM
- inhibition (%) CXCR2 (CXCR2; at 10 μM): 16%
- IC50 (CXCR2; read-out: IC50 CXCR2): > 10 µM
- selective index CXCR2 (CXCR2): >609

- inhibition at 10 µM (hCXCR4; read-out: inhibition (%) CXCR4): 100%
- fold increase in CXCR4 binding affinity compared to compound 24 (hCXCR4; relative to compound 24): 4 fold
- IC50 (CCR5): > 10 µM
- inhibition at 10 µM (CCR5; read-out: inhibition (%) CCR5): 14%
- selective index CCR5 (CCR5): >2380
- IC50 (CCR2): > 10 µM
- inhibition at 10 µM (CCR2; read-out: inhibition (%) CCR2): 2%
- selective index CCR2 (CCR2): >2380
- IC50 (CCR4): > 10 µM
- inhibition at 10 µM (CCR4; read-out: inhibition (%) CCR4): 0%
- selective index CCR4 (CCR4): >2380
- EC50 (HIV-1 IIIB): 0.00061 ± 0.00027 µM
- IC50 (CXCR2): > 10 µM
- inhibition at 10 µM (CXCR2; read-out: inhibition (%) CXCR2): 12%
- selective index CXCR2 (CXCR2): >2380
Compound: c1cc(CNCCCNC2CCCCC2)cc(CNc2nc(N3CCNCC3)nc3[nH]cnc23)c1 [Compound 25, N-Cyclohexyl-N′-{3-[(2-piperazin-1-yl-9H-purin-6-ylamino)-methyl]-benzyl}-propane-1,3-diamine]
- CC50 at 72 h (Cytotoxicity assay [2]): > 50 µM
- selectivity ratio at 72 h (Cytotoxicity assay [2]): > 83300
- CC50 at 72 h (Cytotoxicity assay [3]): > 50 µM
- selectivity ratio at 72 h (Cytotoxicity assay [3]): > 83300
